In PubChem BioAssay AID1918941 (Molecular Pharmacology Branch, DTP, NCI, 2023) one finds viability, T/C and IC50 data, which are given here for 11 molecules.

The structures appear in SMILES notation. “And” between values parts separate entries of the source, which are not always exact repeats. Equal entries are not always repeated.

The subject of the assay is SW 1271 complex spheroids, viability. Put plainly: Anticancer human tumor SW 1271 cell line growth inhibition [LSD1].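 For all read-outs here: spheroids exposed to agents for 7 days before luminescence read.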 The following applies: for viability, T/C: stronger effect = lower value; for IC50: curve of compound. The text has this: Multicellular complex tumor spheroid response to LSD1 Inhibitor Iadademstat in combination with a variety of drugs and investigational agents in selected tumor cell lines
The current study was undertaken to assess response to LSD1 inhibitors in combination with standard-of-care drugs and investigational agents in solid tumor complex spheroid models as well as in the K-562 leukemia. Complex spheroids include a stromal component modeled by human endothelial cells (HUVEC) and fibroblasts modeled by human mesenchymal stem cells (MSCs). The concentration ranges selected for each drug and investigational agent were based upon clinically achievable concentrations if the clinical Cmax of the agent was known.
Compounds. The drugs and investigational agents used in this study are listed on Table 1. All of the agents used, including staurosporine (NSC755774) and gemcitabine (NSC613327), were obtained from the Developmental Therapeutics Program, NCI. FDA-approved anticancer drugs are available from the NCI at http://dtp.nci.nih.gov/branches/dscb/oncology_drugset_explanation.html. Drugs and investigational agents were >95% pure by proton nuclear magnetic resonance (NMR) and liquid chromatography/mass spectrometry (LC/MS). Stock solutions were prepared at 400x in DMSO, stored at -70 degrees C, and diluted in fresh medium prior to their use. The final concentration of DMSO in cell culture wells never exceeded 0.25% (v/v). The FDA-approved anticancer drug set is available from the Developmental Therapeutics Program at https://dtp.cancer.gov/organization/dscb/obtaining/available_plates.htm. All drugs and investigational agents were tested over a range starting from a high concentration at or near the clinical Cmax and decreasing in half-log increments. If the clinical Cmax for an agent had not been determined, the highest concentration tested was 10 microM.
Cell Lines. The patient-derived cancer cell (PDC) lines: 292921-168-R-J2-PDC, K24384-001-R-PDC, and 521955-158-R2-J5-PDC pancreatic carcinomas, 556581-035-R-J1 ovarian carcinoma, 324938-238-R-J1-PDC, 855422-203-R-J1-PDC and 883617-216-R-J1-PDC urothelial bladder carcinomas, 743489-274-T-PDC renal cell carcinoma, 138582-R-J1 Merkel cell tumor, K60290-347-R-J1 and K57222-313-R-J1-PDC glioblastomas, 653999-131-R-J2-PDC, LG0703-F948-PDC, and 349418-098-R-PDC non-small cell lung carcinomas, 885512-296-R-J2-PDC, 171881-019-R-J1-PDC breast carcinomas and 186277-243-T-J2-PDC and 233499-124-R-J2-PDC colon carcinomas were obtained from the NCI Patient-Derived Models Repository (PDMR, https://pdmr.cancer.gov). The established cell lines NCI/ADR-RES (RRID:CVCL_14520 and OVCAR-5 (RRID:CVCL_1628) ovarian carcinomas, 786-O (RRID:CVCL_1051) and A498 (RRID:CVCL_A498) renal cell carcinoma, NCI-H211 (ATCC, cat. CRL-5824; RRID:CVCL_1529), NCI-H196 (ATCC, cat. CRL-5823, RRID:CVCL_1509), SW 1271 (ATCC, cat. CRL-2177, RRID:CVCL_1716) and NCI-H1876 (ATCC, cat. CRL-5902, RRID:CVCL_1503) small cell lung carcinomas, MDA-MB-231 (RRID:CVCL_0062) and MDA-MB-468 (RRID:CVCL_0419)breast carcinomas (10-12). Pooled donor human umbilical vein endothelial cells (HUVEC, Lonza, cat. CC-2519) and human mesenchymal stem cells (hMSC, Lonza, cat. PT-2501) were purchased from Lonza (Walkersville, MD).
Cell Culture. All cells were maintained in an incubator at 37 degrees C and 5% CO2 with 95% humidity. The PDC lines were cultured according to standard operating procedures established by the NCI PDMR (https://pdmr.cancer.gov). Briefly all PDCs were thawed and cultured in Matrigel-coated flasks prepared with a working solution of 1X Ham's F-12 nutrient mix, without supplementation (Invitrogen, Waltham, MA, cat. 11765054), 100 U/mL penicillin-streptomycin (Invitrogen, cat. 15140122), and 2.5% Matrigel (Corning Inc., Corning, NY, cat. 354248) for the first three passages. […]

On to `CC(C)CC(NC(=O)C(Cc1ccccc1)NC(=O)c1cnccn1)B(O)O` (configuration not stated), for which the 50% inhibitory concentration (IC50) is under 0.316 nM. Further, the viability, T/C (compound 0.000316 µM) was 1.55% and 4.22%. For the same molecule, where the note is “compound 0.001 µM”, the viability, T/C is 0.42% and 0.29%. Also, the viability, T/C (compound 0.00316 µM) is 0.34% and 0.36%. Besides, the viability, T/C (compound 0.01 µM) was 0.16% and 0.3%. The viability, T/C (compound 0.0316 µM) was 0.16% and 0.18%. In addition, the viability, T/C (compound 0.1 µM) was 0.24% and 0.23%.

For the molecule `CC(C)CC(NC(=O)CNC(=O)c1cc(Cl)ccc1Cl)B1OC(=O)CC(CC(=O)O)(C(=O)O)O1` (configuration not stated), the IC50 was 4.78 nM and 5.84 nM. Besides, the viability, T/C (compound 0.000316 µM) was 99.2% and 97.3%. Moreover, the viability, T/C (compound 0.001 µM) is 91.3% and 86.2%. Also, the viability, T/C (compound 0.00316 µM) was 74.4% and 88%. Also, under “compound 0.01 µM”, the viability, T/C was 6.54% and 16.7%. Further, for the setting “compound 0.0316 µM”, the viability, T/C was 0.32% and 0.39%. Moreover, the viability, T/C (compound 0.1 µM) is 0.31% and 0.4%.

With `CC1COCCN1c1cc(-c2ccnn2C)c2ccnc(-c3ccn[nH]3)c2n1` (configuration not stated), the IC50 is 108 nM and 92.1 nM. Besides, the viability, T/C (compound 0.00316 µM) is 72.4% and 71.8%. The viability, T/C (compound 0.01 µM) was 72.6% and 63.3%. Moreover, the viability, T/C (compound 0.0316 µM) was 50.7% and 59%. The viability, T/C (compound 0.1 µM) was 50.3% and 47.2%. Moreover, the viability, T/C (compound 0.316 µM) is 48.2% and 43.4%. Moreover, the viability, T/C (compound 1 µM) is 30.1% and 28.4%.

`CC[C@@]1(O)C(=O)OCc2c1cc1n(c2=O)Cc2cc3c(CN(C)C)c(O)ccc3nc2-1`: the IC50 is over 100 nM. The viability, T/C (compound 0.000316 µM) is 88.2% and 98.2%. Further, the viability, T/C (compound 0.001 µM) was 89.6% and 109%. Also, the viability, T/C (compound 0.00316 µM) was 72.7% and 75.3%. Moreover, under “compound 0.01 µM”, the viability, T/C is 66.6% and 85.6%. For the same molecule, the viability, T/C (compound 0.0316 µM) was 58.7% and 65.7%. Also, the viability, T/C (compound 0.1 µM) is 49.4% and 53.2%.

Regarding `CCc1c2c(nc3ccc(O)cc13)-c1cc3c(c(=O)n1C2)COC(=O)[C@]3(O)CC`, the IC50 is 3.64 nM and < 0.949 nM. In addition, the viability, T/C (compound 0.000949 µM) is 57.8% and 46.7%. Moreover, under “compound 0.003 µM”, the viability, T/C was 55.8% and 41.6%. The viability, T/C (compound 0.00949 µM) is 23.3% and 28.8%. Also, the viability, T/C (compound 0.03 µM) was 7.65% and 6.53%. Further, the viability, T/C (compound 0.0949 µM) is 6.15% and 5.62%. Moreover, the viability, T/C (compound 0.3 µM) was 3.93% and 13.3%.

Turning to `COc1cc(Nc2ncc3c(n2)-c2ccc(Cl)cc2C(c2c(F)cccc2OC)=NC3)ccc1C(=O)O`, the IC50 is 179 nM and 164 nM. The viability, T/C (compound 0.00316 µM) is 92.2% and 73.8%. The viability, T/C (compound 0.01 µM) is 86.8% and 78.9%. Further, the viability, T/C (compound 0.0316 µM) was 72.8% and 73.9%. The viability, T/C (compound 0.1 µM) is 58.6% and 59%. Also, the viability, T/C (compound 0.316 µM) is 42.5% and 36.9%. Besides, the viability, T/C (compound 1 µM) was 14.1% and 15.6%.

Take `Cn1ncnc1C1c2n[nH]c(=O)c3cc(F)cc(c23)NC1c1ccc(F)cc1` (configuration not stated): the IC50 is over 100 nM. Also, the viability, T/C (compound 0.000316 µM) is 89.1% and 97.2%. Also, the viability, T/C (compound 0.001 µM) was 94.9% and 81.7%. Besides, under “compound 0.00316 µM”, the viability, T/C is 87.8% and 87%. Moreover, for the setting “compound 0.01 µM”, the viability, T/C was 91.1% and 85%. Besides, the viability, T/C (compound 0.0316 µM) is 84.2% and 92.2%. Further, the viability, T/C (compound 0.1 µM) is 91.7% and 99.5%.

For the molecule `Nc1ccn(C2OC(CO)C(O)C2(F)F)c(=O)n1` (configuration not stated), the IC50 was over 300 nM. The viability, T/C (compound 0.000949 µM) was 73.7% and 82.6%. Further, the viability, T/C (compound 0.003 µM) was 73.8% and 71.3%. The viability, T/C (compound 0.00949 µM) is 64.3% and 67.8%. For the same molecule, where the note is “compound 0.03 µM”, the viability, T/C is 66% and 66.1%. For the same molecule, the viability, T/C (compound 0.0949 µM) is 67.3% and 68.9%. Under “compound 0.3 µM”, the viability, T/C is 64.6% and 74.8%.

With `Nc1ncn(C2CC(O)C(CO)O2)c(=O)n1` (configuration not stated), the IC50 was over 1000 nM. In addition, the viability, T/C (compound 0.00316 µM) is 96% and 88.2%. For the same molecule, under “compound 0.01 µM”, the viability, T/C is 86.6% and 105%. Besides, the viability, T/C (compound 0.0316 µM) was 83.1% and 88.3%. Besides, for the setting “compound 0.1 µM”, the viability, T/C is 86.9% and 93.3%. Further, the viability, T/C (compound 0.316 µM) was 83% and 80.3%. In addition, the viability, T/C (compound 1 µM) is 86.7% and 89.8%.

`Nc1ncn(C2CC(O)C(CO)S2)c(=O)n1` (configuration not stated): the IC50 was over 300 nM. The viability, T/C (compound 0.000949 µM) was 105% and 83.6%. In addition, the viability, T/C (compound 0.003 µM) is 112% and 88.6%. In addition, the viability, T/C (compound 0.00949 µM) was 99.5% and 86.3%. Moreover, the viability, T/C (compound 0.03 µM) was 108% and 83.2%. In addition, the viability, T/C (compound 0.0949 µM) is 94.7% and 91.1%. The viability, T/C (compound 0.3 µM) was 88.5% and 71.2%.

For the molecule `O=C(C=Cn1cnc(-c2cc(C(F)(F)F)cc(C(F)(F)F)c2)n1)NNc1cnccn1`, the IC50 is 153 nM and 147 nM. Also, under “compound 0.00316 µM”, the viability, T/C is 92% and 82.7%. Moreover, the viability, T/C (compound 0.01 µM) is 87.1% and 89.1%. In addition, the viability, T/C (compound 0.0316 µM) is 80% and 75.1%. The viability, T/C (compound 0.1 µM) is 45.3% and 51.4%. Under “compound 0.316 µM”, the viability, T/C is 47.8% and 40.4%. Also, the viability, T/C (compound 1 µM) is 21.6% and 16.6%.

The term viability, T/C denotes the result in the treated group divided by that in the control group, in per cent. One may read the IC50 as the point on the concentration scale where inhibition reaches its midpoint.
